{
  "source": "patent US12070523B2",
  "about": "“Sanitization of an article using in situ electrolysis” (APPLIED BIOCIDE GMBH, priority 2022, dated 2024)",
  "origin": "cited, not measured here",
  "data": [
    {"smiles": "[O-][Cl+2]([O-])O", "note": "[chlorate]", "values": [
      {"measurement": "ADI (allowable daily intake)", "setting": "as ClO3^−", "value": 0.0024, "unit": "mg/kg BW·day"},
      {"measurement": "Maximum residue level (MRL), smallest MRL used as worst-case", "setting": "chronic exposure, Commission Regulation (EU) 2020/749", "value": 0.05, "unit": "mg/kg BW·day"}
    ]}
  ]
}
